Holding throughout (format): in vivo
For assay [1], the system named is ABUTH Abutilon theophrasti. Kind of assay: Post-emergence crop and weed test (Example 15). The note with it: 360 h, after 15 days, read-out: Percentage damage ABUTH. The method, then: (§1) Seeds of crop and representative weed species were sown in standard soil in pots. After cultivation for 14 days under controlled conditions in a glasshouse (at 22/16° C., day/night; 16 hours light; 65% humidity), the plants were sprayed. The spray solution was prepared by dissolving the technical active ingredient in acetone containing 10.56 wt % Emulsogen EL, 42.22 wt % N-methylpyrrolidone and 2.22 wt % DPG-monoethyl ether to give a 5% stock solution. This was then diluted with water containing 0.2% (v/v) of the adjuvant X-77 to give the desired treatment concentration.
(§2) The test plants were then grown on under controlled conditions in a glasshouse (at 22/16° C., day/night; 16 hours light; 65% humidity) and watered twice daily. After 15 days the test was evaluated (100 =total damage to plant; 0 =no damage to plant).

Assay [2] deals with AMARE Amaranthus retroflexus. Kind of assay: Post-emergence crop and weed test (Example 15). The note with it: 360 h, after 15 days, read-out: Percentage damage AMARE. The method, then: as §1, §2
A further assay has as its system CHEAL Chenopodium album. As to the kind of experiment: Post-emergence crop and weed test (Example 15). The note with it: 360 h, after 15 days, read-out: Percentage damage CHEAL. The procedure:
as §1, §2

For assay [3], the system named is EPHHL Euphorbia heterophylla. Kind of assay: Post-emergence crop and weed test (Example 15). The note with it: 360 h, after 15 days, read-out: Percentage damage EPHHL. The procedure:
as §1, §2

The test system of a further assay is GALAP Galium aparine. As to the kind of experiment: Post-emergence crop and weed test (Example 15). The note with it: 360 h, 30 g/ha, after 15 days, read-out: Percentage damage GALAP. The method, then: as §1, §2
In the next assay the test system is GLXMA Soybean. As to the kind of experiment: Post-emergence crop and weed test (Example 15). The note with it: Glycine max, 360 h, after 15 days, read-out: Percentage damage GLXMA. The procedure:
as §1, §2

The test system of a further assay is IPOHE Ipomoea hederacea. Kind of assay: Post-emergence crop and weed test (Example 15). The note with it: 360 h, after 15 days, read-out: Percentage damage IPOHE. The procedure:
as §1, §2

The test system of the next assay is KCHSC Kochia scoparia. As to the kind of experiment: Post-emergence crop and weed test (Example 15). The note with it: Bassia scoparia, 360 h, after 15 days, read-out: Percentage damage KCHSC. The method, then:
as §1, §2

Assay [4] has as its system POLCO Polygonum convolvulus. Kind of assay: Post-emergence crop and weed test (Example 15). The note with it: Fallopia convolvulus, 360 h, after 15 days, read-out: Percentage damage POLCO. The procedure: as §1, §2
The subject of another assay is SIDSP Sida spinosa. Kind of assay: Post-emergence crop and weed test (Example 15). The note with it: 360 h, after 15 days, read-out: Percentage damage SIDSP. The method, then:
as §1, §2

A further assay concerns SINAR Sinapis arvensis. As to the kind of experiment: Post-emergence crop and weed test (Example 15). The note with it: Mutarda arvensis, 360 h, after 15 days, read-out: Percentage damage SINAR. The procedure: as §1, §2
The subject of another assay is VERPE Veronica persica. As to the kind of experiment: Post-emergence crop and weed test (Example 15). The note with it: 360 h, after 15 days, read-out: Percentage damage VERPE. The method, then: as §1, §2
In assay [5] the test system is XANST Xanthium strumarium. Kind of assay: Post-emergence crop and weed test (Example 15). The note with it: 360 h, after 15 days, read-out: Percentage damage XANST. The method, then:
as §1, §2

The subject of assay [6] is Alopecurus myosuroides (ALOMY). Kind of assay: Pre-emergence biological efficacy (Example 13). The note with it: Alopecurus myosuroides, 312 h; pre-emergence, 1,000 g/ha, after 13 days; read-out: Percentage damage ALOMY. The method, then:
(§3) Seeds of Alopecurus myosuroides (ALOMY), Setaria faberi (SETFA), Echinochloa crus-galli (ECHCG), Solanum nigrum (SOLNI), Amaranthus retroflexus (AMARE) and Ipomea hederaceae (IPOHE) were sown in standard soil in pots. After cultivation for one day under controlled conditions in a glasshouse (at 24/16° C., day/night; 14 hours light; 65% humidity), the plants were sprayed with an aqueous spray solution derived from the formulation of the technical active ingredient in acetone/water (50:50) solution containing 0.5% Tween 20 (polyoxyethylene sorbitan monolaurate, CAS RN 9005-64-5) to give a final dose of 250 or 1000g/ha of test compound. The test plants were then grown under controlled conditions in the glasshouse (at 24/16° C., day/night; 14 hours light; 65% humidity) and watered twice daily. After 13 days the test was evaluated (100 =total damage to plant; 0 =no damage to plant).

Assay [7] relates to Amaranthus retroflexus (AMARE). As to the kind of experiment: Pre-emergence biological efficacy (Example 13). The note with it: Amaranthus retroflexus, 312 h; pre-emergence, 1,000 g/ha, after 13 days; read-out: Percentage damage AMARE. The method, then: as §3
The test system of assay [8] is Echinochloa crus-galli (ECHCG). Kind of assay: Pre-emergence biological efficacy (Example 13). The note with it: Echinochloa crus-galli, 312 h; pre-emergence, 1,000 g/ha, after 13 days; read-out: Percentage damage ECHCG. The method, then:
as §3

In assay [9] the test system is Ipomea hederaceae (IPOHE). Kind of assay: Pre-emergence biological efficacy (Example 13). The note with it: Ipomoea hederacea, 312 h; pre-emergence, 1,000 g/ha, after 13 days; read-out: Percentage damage IPOHE. The method, then: as §3
Assay [10] has as its system Setaria faberi (SETFA). As to the kind of experiment: Pre-emergence biological efficacy (Example 13). The note with it: Setaria faberi, 312 h; pre-emergence, 1,000 g/ha, after 13 days; read-out: Percentage damage SETFA. The method, then:
as §3

The subject of assay [11] is Solanum nigrum (SOLNI). Kind of assay: Pre-emergence biological efficacy (Example 13). The note with it: Solanum nigrum, 312 h; pre-emergence, 1,000 g/ha, after 13 days; read-out: Percentage damage SOLNI. The procedure:
as §3

Assay [12] concerns Alopecurus myosuroides (ALOMY). Kind of assay: Post-emergence biological efficacy (Example 14). The note with it: Alopecurus myosuroides, 312 h; post-emergence, 1,000 g/ha, after 13 days; read-out: Percentage damage ALOMY. The procedure: as §3, with “for 8 days” for “for one day”, “or 1000 g/ha” for “or 1000g/ha”, “grown on” for “grown”, “in a” for “in the”, “evaluated (100=total” for “evaluated (100 =total”, “plant; 0=no” for “plant; 0 =no”

The test system of assay [13] is Amaranthus retroflexus (AMARE). Kind of assay: Post-emergence biological efficacy (Example 14). The note with it: Amaranthus retroflexus, 312 h; post-emergence, 1,000 g/ha, after 13 days; read-out: Percentage damage AMARE. The method, then:
as §3, with “for 8 days” for “for one day”, “or 1000 g/ha” for “or 1000g/ha”, “grown on” for “grown”, “in a” for “in the”, “evaluated (100=total” for “evaluated (100 =total”, “plant; 0=no” for “plant; 0 =no”

For assay [14], the system named is Echinochloa crus-galli (ECHCG). As to the kind of experiment: Post-emergence biological efficacy (Example 14). The note with it: Echinochloa crus-galli, 312 h; post-emergence, 1,000 g/ha, after 13 days; read-out: Percentage damage ECHCG. The method, then: as §3, with “for 8 days” for “for one day”, “or 1000 g/ha” for “or 1000g/ha”, “grown on” for “grown”, “in a” for “in the”, “evaluated (100=total” for “evaluated (100 =total”, “plant; 0=no” for “plant; 0 =no”

Assay [15] relates to Ipomea hederaceae (IPOHE). As to the kind of experiment: Post-emergence biological efficacy (Example 14). The note with it: Ipomoea hederacea, 312 h; post-emergence, 1,000 g/ha, after 13 days; read-out: Percentage damage IPOHE. The procedure:
as §3, with “for 8 days” for “for one day”, “or 1000 g/ha” for “or 1000g/ha”, “grown on” for “grown”, “in a” for “in the”, “evaluated (100=total” for “evaluated (100 =total”, “plant; 0=no” for “plant; 0 =no”

The subject of assay [16] is Setaria faberi (SETFA). As to the kind of experiment: Post-emergence biological efficacy (Example 14). The note with it: Setaria faberi, 312 h; post-emergence, 1,000 g/ha, after 13 days; read-out: Percentage damage SETFA. The procedure:
as §3, with “for 8 days” for “for one day”, “or 1000 g/ha” for “or 1000g/ha”, “grown on” for “grown”, “in a” for “in the”, “evaluated (100=total” for “evaluated (100 =total”, “plant; 0=no” for “plant; 0 =no”

For assay [17], the system named is Solanum nigrum (SOLNI). Kind of assay: Post-emergence biological efficacy (Example 14). The note with it: Solanum nigrum, 312 h; post-emergence, 1,000 g/ha, after 13 days; read-out: Percentage damage SOLNI. The method, then: as §3, with “for 8 days” for “for one day”, “or 1000 g/ha” for “or 1000g/ha”, “grown on” for “grown”, “in a” for “in the”, “evaluated (100=total” for “evaluated (100 =total”, “plant; 0=no” for “plant; 0 =no”

The results in this text go back to patent US20120115724A1, “METHOD OF CONTROLLING UNDESIRED VEGETATION” (SYNGENTA CROP PROTECTION LLC, priority 2009, published 2012).

Each structure is given as a SMILES string.

With `COC(=O)c1nc(-c2ccc(Cl)c(N(C)C)c2F)nc(N)c1Cl` [Ref. Ex. A, 4-Amino-5-chloro-2-(4-chloro-3-dimethylamino-2-fluorophenyl)-6-methoxycarbonyl-pyrimidine, reference compound], the pest or weed control at 30 g/ha in [1] (30 g/ha) is 90%; in [2] (30 g/ha), 100%; in the assay on CHEAL Chenopodium album (30 g/ha), 80%; in assay [3] (30 g/ha), 80%; with GALAP Galium aparine it was 30%; in the assay with IPOHE Ipomoea hederacea (30 g/ha) it was 70%. For the same molecule, the pest or weed control at 30 g/ha in the assay with KCHSC Kochia scoparia (30 g/ha) was 80%; in [4] (30 g/ha), 90%; in the assay on SIDSP Sida spinosa (30 g/ha), 80%; with SINAR Sinapis arvensis (30 g/ha), 70%; in the assay with VERPE Veronica persica (30 g/ha), 70%; in assay [5] (30 g/ha), 90%. Further, the plant injury at 30 g/ha in the assay with GLXMA Soybean (30 g/ha) came out at 50%.
With `C=Cc1c(N)nc(C2CC2)nc1C(=O)OC` [Ref. Ex. C, 4-Amino-2-cyclopropyl-5-ethenyl-6-methoxycarbonyl-pyrimidine, reference compound], the pest or weed control at 8 g/ha in [1] (8 g/ha) stood at 30%; in assay [2] (8 g/ha) it was 10%; in the assay with CHEAL Chenopodium album (8 g/ha) it was 60%; in assay [3] (8 g/ha) it was 30%; in the assay on IPOHE Ipomoea hederacea (8 g/ha), 70%; in the assay with KCHSC Kochia scoparia (8 g/ha), 0%. In addition, the pest or weed control at 8 g/ha was determined as 0% in assay [4] (8 g/ha); 40% in the assay with SIDSP Sida spinosa (8 g/ha); 0% in the assay with SINAR Sinapis arvensis (8 g/ha); 50% in the assay with VERPE Veronica persica (8 g/ha); 0% in assay [5] (8 g/ha). In addition, in the assay on GLXMA Soybean (8 g/ha), the plant injury at 8 g/ha worked out at 70%.
On to `C=Cc1c(N)nc(-c2ccc(Cl)nc2)nc1C(=O)OC` [Compound 8, 4-amino-2-(6-chloropyridin-3-yl)-5-ethenyl-6-methoxycarbonyl-pyrimidine], for which the pest or weed control at 1000 g/ha in assay [6] is 10%; in [7], 100%; in assay [8], 0%; in [9], 40%; in the assay with Setaria faberi (SETFA) [10], 10%; in the assay with Solanum nigrum (SOLNI) [11], 40%. Further, the pest or weed control at 1000 g/ha amounted to 0% in [12]; 100% in assay [13]; 0% in assay [14]; 50% in assay [15]; 0% in the assay with Setaria faberi (SETFA) [16]; 90% in the assay with Solanum nigrum (SOLNI) [17]. Besides, the pest or weed control at 250 g/ha in assay [1] (250 g/ha) was 60%; in assay [2] (250 g/ha), 100%; in the assay on CHEAL Chenopodium album (250 g/ha), 100%; in assay [3] (250 g/ha), 40%; with IPOHE Ipomoea hederacea (250 g/ha), 50%; in the assay with KCHSC Kochia scoparia (250 g/ha) it was 60%. Moreover, the pest or weed control at 250 g/ha is 60% in [4] (250 g/ha); 20% with SIDSP Sida spinosa (250 g/ha); 70% in the assay with SINAR Sinapis arvensis (250 g/ha); 80% with VERPE Veronica persica (250 g/ha); 80% in assay [5] (250 g/ha). For the same molecule, the plant injury at 250 g/ha with GLXMA Soybean (250 g/ha) was 10%.
